Experimental data from US12325701B2, “YKL-40 inhibitors and their therapeutic” (Molecure S.A., priority 2022, dated 2025).
Where a name gives a salt, the structure may show the parent alone.

Molecular target: YKL-40 (YKL-40-histag, chitin binding site) (Homo sapiens (Human), UniProt P36222)
Test: YKL-40:4 assay, competitive chitin binding site AlphaScreen
Details: not given

Sequence of YKL-40 (YKL-40-histag, chitin binding site) (P36222 22-383): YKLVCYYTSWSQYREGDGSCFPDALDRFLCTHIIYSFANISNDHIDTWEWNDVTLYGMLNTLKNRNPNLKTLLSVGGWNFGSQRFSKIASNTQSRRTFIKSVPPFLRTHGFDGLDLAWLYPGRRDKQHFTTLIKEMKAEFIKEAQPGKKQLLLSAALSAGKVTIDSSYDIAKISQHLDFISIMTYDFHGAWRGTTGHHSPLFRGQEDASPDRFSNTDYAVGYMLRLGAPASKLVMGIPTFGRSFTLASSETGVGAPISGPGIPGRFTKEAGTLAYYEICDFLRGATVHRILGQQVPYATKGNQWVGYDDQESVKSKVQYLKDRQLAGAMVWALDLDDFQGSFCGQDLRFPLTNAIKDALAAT

SMILES | IC50 [µM]
C[C@H]1CN(C2CCN(c3ncnc(C#N)n3)CC2)[C@@H](Cc2ccc(Cl)cc2)CO1 [Compound 173, 4-(4-((2S,5S)-5-(4-chlorobenzyl)-2-methylmorpholino)piperidin-1-yl)-1,3,5-triazine-2-carbonitrile 2,2,2-trifluoroacetate] | > 10
C[C@H]1CN(C2CCN(c3ncnc(N)n3)CC2)[C@@H](Cc2ccc(Cl)cc2)CO1 [Compound 174, 4-(4-((2S,5S)-5-(4-chlorobenzyl)-2-methylmorpholino)piperidin-1-yl)-1,3,5-triazin-2-amine 2,2,2-trifluoroacetate] | > 10
C[C@H]1CN(C2C[C@H]3CC[C@@H](C2)N3c2cc(Cl)ccn2)[C@@H](Cc2ccc(Cl)cc2)CO1 (stereo partly drawn) [Compound 58, (2S,5S)-5-(4-chlorobenzyl)-4-((1R,5S)-8-(4-chloropyridin-2-yl)-8-azabicyclo[3.2.1]octan-3-yl)-2-methylmorpholine 2,2,2-trifluoroacetate] | > 10
C[C@H]1CN(C2CCN(c3nccc4ccccc34)CC2)[C@@H](Cc2ccc(Cl)cc2)CO1 [Compound 116, (2S,5S)-5-(4-chlorobenzyl)-4-(1-(isoquinolin-1-yl)piperidin-4-yl)-2-methylmorpholine 2,2,2-trifluoroacetate] | > 10
C[C@H]1CN(C2CCN(c3ncccc3CO)CC2)[C@@H](Cc2ccc(Cl)cc2)CO1 [Compound 120, (2-(4-((2S,5S)-5-(4-chlorobenzyl)-2-methylmorpholino)piperidin-1-yl)pyridin-3-yl)methanol 2,2,2-trifluoroacetate] | > 10
C[C@H]1CN(C2CCN(c3nncs3)CC2)[C@@H](Cc2ccc(Cl)cc2)CO1 [Compound 181, (2S,5S)-4-(1-(1,3,4-thiadiazol-2-yl)piperidin-4-yl)-5-(4-chlorobenzyl)-2-methylmorpholine 2,2,2-trifluoroacetate] | > 10
Cc1noc(N2CCC(N3C[C@H](C)OC[C@@H]3Cc3ccc(Cl)cc3)CC2)n1 [Compound 188, (2S,5S)-5-(4-chlorobenzyl)-2-methyl-4-(1-(3-methyl-1,2,4-oxadiazol-5-yl)piperidin-4-yl)morpholine 2,2,2-trifluoroacetate] | > 10
Cc1cccnc1N1CCC(N2C[C@H](C)OC[C@@H]2Cc2ccc(Cl)cc2)CC1 [Example 16, (2S,5S)-5-(4-chlorobenzyl)-2-methyl-4-(1-(3-methylpyridin-2-yl)piperidin-4-yl)morpholine 2,2,2-trifluoroacetate] | > 10
C[C@H]1CN(C2CCN(c3cc(C(N)=O)ccn3)CC2)[C@@H](Cc2ccc(Cl)cc2)CO1 [Compound 132, 2-(4-((2S,5S)-5-(4-chlorobenzyl)-2-methylmorpholino)piperidin-1-yl)isonicotinamide 2,2,2-trifluoroacetate] | > 10
C[C@H]1CN(C2CCN(c3nccc(C(=O)O)c3F)CC2)[C@@H](Cc2ccc(Cl)cc2)CO1 [Compound 128, 2-(4-((2S,5S)-5-(4-chlorobenzyl)-2-methylmorpholino)piperidin-1-yl)-3-fluoroisonicotinic acid 2,2,2-trifluoroacetate] | > 10
C[C@H]1CN(C2CCN(c3cc(CO)ccn3)CC2)[C@@H](Cc2ccc(Cl)cc2)CO1 [Compound 130, (2-(4-((2S,5S)-5-(4-chlorobenzyl)-2-methylmorpholino)piperidin-1-yl)pyridin-4-yl)methanol 2,2,2-trifluoroacetate] | > 10
C[C@H]1CN(C2CCN(c3cccc(C#N)n3)CC2)[C@@H](Cc2ccc(Cl)cc2)CO1 [Example 18, 6-(4-((2S,5S)-5-(4-chlorobenzyl)-2-methylmorpholino)piperidin-1-yl)picolinonitrile 2,2,2-trifluoroacetate] | > 10
C[C@H]1CN(C2CCN(c3c(F)cccc3F)CC2)[C@@H](Cc2ccc(Cl)cc2)CO1 [Compound 123, (2S,5S)-5-(4-chlorobenzyl)-4-(1-(2,6-difluorophenyl)piperidin-4-yl)-2-methylmorpholine 2,2,2-trifluoroacetate] | > 10
C[C@H]1CN(C2CCN(c3ncnc(O)n3)CC2)[C@@H](Cc2ccc(Cl)cc2)CO1 [Compound 170] | > 10
C[C@H]1CN(C2CCN(c3nnn[nH]3)CC2)[C@@H](Cc2ccc(Cl)cc2)CO1 [Compound 166, (2S,5S)-4-(1-(1H-tetrazol-5-yl)piperidin-4-yl)-5-(4-chlorobenzyl)-2-methylmorpholine 2,2,2-trifluoroacetate] | > 10
C[C@H]1CN(C2CCN(c3ncns3)CC2)[C@@H](Cc2ccc(Cl)cc2)CO1 [Compound 179, (2S,5S)-4-(1-(1,2,4-thiadiazol-5-yl)piperidin-4-yl)-5-(4-chlorobenzyl)-2-methylmorpholine 2,2,2-trifluoroacetate] | > 10
C[C@H]1CN(C2CCN(c3ncc(F)cc3F)CC2)[C@@H](Cc2ccc(Cl)cc2)CO1 [Example 25, (2S,5S)-5-(4-chlorobenzyl)-4-(1-(3,5-difluoropyridin-2-yl)piperidin-4-yl)-2-methylmorpholine 2,2,2-trifluoroacetate] | > 10
Clc1ccc(C[C@H]2COc3ccccc3CN2C2CCN(c3ccccn3)CC2)cc1 [Compound 81, (S)-3-(4-chlorobenzyl)-4-(1-(pyridin-2-yl)piperidin-4-yl)-2,3,4,5-tetrahydrobenzof[1,4]oxazepine hydrochloride] | > 10
C[C@H]1CN(C2CCN(c3ncnc(Cl)n3)CC2)[C@@H](Cc2ccc(Cl)cc2)CO1 [Compound 169, (2S,5S)-4-(1-(4-chloro-1,3,5-triazin-2-yl)piperidin-4-yl)-5-(4-chlorobenzyl)-2-methylmorpholine 2,2,2-trifluoroacetate] | > 10
C[C@H]1CN(C2CCN(c3ccncn3)CC2)[C@@H](Cc2ccc(Cl)cc2)CO1 [Example 26, (2S,5S)-5-(4-chlorobenzyl)-2-methyl-4-(1-(pyrimidin-4-yl)piperidin-4-yl)morpholi-ne 2,2,2-trifluoroacetate] | > 10
COC(=O)c1cccnc1N1CCC(N2C[C@H](C)OC[C@@H]2Cc2ccc(Cl)cc2)CC1 [Compound 117, methyl 2-(4-((2S,5S)-5-(4-chlorobenzyl)-2-methylmorpholino)piperidin-1-yl)nicotinate 2,2,2-trifluoroacetate] | > 10
C[C@H]1CN(C2CCN(c3cc(Cl)ccc3C#N)CC2)[C@@H](Cc2ccc(Cl)cc2)CO1 [Compound 115, 4-chloro-2-(4-((2S,5S)-5-(4-chlorobenzyl)-2-methylmorpholino)piperidin-1-yl)benzonitrile 2,2,2-trifluoroacetate] | > 10
COc1cccnc1N1CCC(N2C[C@H](C)OC[C@@H]2Cc2ccc(Cl)cc2)CC1 [Compound 162, (2S,5S)-5-(4-chlorobenzyl)-4-(1-(3-methoxypyridin-2-yl)piperidin-4-yl)-2-methylmorpholine 2,2,2-trifluoroacetate] | > 10
O=C1NCCN(C2CCN(c3ccccn3)CC2)[C@H]1Cc1ccc(Cl)cc1 [Compound 149, (S)-3-(4-chlorobenzyl)-4-(1-(pyridin-2-yl)piperidin-4-yl)piperazin-2-one 2,2,2-trifluoroacetate] | > 10
C[C@H]1CN(C2CCN(c3cc(C(=O)O)ccn3)CC2)[C@@H](Cc2ccc(Cl)cc2)CO1 [Compound 125, 2-(4-((2S,5S)-5-(4-chlorobenzyl)-2-methylmorpholino)piperidin-1-yl)isonicotinic acid 2,2,2-trifluoroacetate] | > 10
Cc1ncnc(N2CCC(N3C[C@H](C)OC[C@@H]3Cc3ccc(Cl)cc3)CC2)n1 [Compound 172, (2S,5S)-5-(4-chlorobenzyl)-2-methyl-4-(1-(4-methyl-1,3,5-triazin-2-yl)piperidin-4-yl)morpholine 2,2,2-trifluoroacetate] | > 10
Cc1nnc(N2CCC(N3C[C@H](C)OC[C@@H]3Cc3ccc(Cl)cc3)CC2)s1 [Compound 182, (2S,5S)-5-(4-chlorobenzyl)-2-methyl-4-(1-(5-methyl-1,3,4-thiadiazol-2-yl)piperidin-4-yl)morpholine 2,2,2-trifluoroacetate] | > 10
C[C@H]1CN(C2CCN(c3cccnc3)CC2)[C@@H](Cc2ccc(Cl)cc2)CO1 [Example 27, (2S,5S)-5-(4-chlorobenzyl)-2-methyl-4-(1-(pyridin-3-yl)piperidin-4-yl)morpholine 2,2,2-trifluoroacetate] | > 10

Same assay, conditions: competition with biotinylated compound 4, 20 nM; YKL-40-histag 2.5 nM; read-out: YKL-40:4, IC50/Kd (IC50 range)

SMILES | IC50 [µM]
C[C@H]1CN(C2CCN(c3ccccc3)CC2)[C@@H](Cc2ccc(Cl)cc2)CO1 [Example 37, (2S,5S)-5-(4-chlorobenzyl)-2-methyl-4-(1-phenylpiperidin-4-yl)morpholine dihydro-chloride] | > 10
CC(C)C[C@H]1CN(C2CCN(c3ccccn3)CC2)[C@@H](Cc2ccc(Cl)cc2)CN1C(=O)OC(C)(C)C [Compound 2e, tert-butyl (2S,5S)-5-(4-chlorobenzyl)-2-isobutyl-4-(1-(pyridin-2-yl)piperidin-4-yl)piperazine-1-carboxylate] | > 10
COC(=O)c1ccnc(N2CCC(N3C[C@H](C)OC[C@@H]3Cc3ccc(Cl)cc3)CC2)c1 [Compound 124, methyl 2-(4-((2S,5S)-5-(4-chlorobenzyl)-2-methylmorpholino)piperidin-1-yl)isonicotinate] | > 10
COC(=O)c1ccnc(F)c1N1CCC(N2C[C@H](C)OC[C@@H]2Cc2ccc(Cl)cc2)CC1 [Compound 121, methyl 3-(4-((2S,5S)-5-(4-chlorobenzyl)-2-methylmorpholino)piperidin-1-yl)-2-fluoroisonicotinate] | > 10
COC(=O)c1ccnc(N2CCC(N3C[C@H](C)OC[C@@H]3Cc3ccc(Cl)cc3)CC2)c1F [Compound 122, methyl 2-(4-((2S,5S)-5-(4-chlorobenzyl)-2-methylmorpholino)piperidin-1-yl)-3-fluoroisonicotinate] | > 10
C[C@H]1CN(C2CCN(c3cc(C(F)(F)F)ncn3)CC2)[C@@H](Cc2ccc(Cl)cc2)CO1 [Compound 145, (2S,5S)-5-(4-chlorobenzyl)-2-methyl-4-(1-(6-(trifluoromethyl)pyrimidin-4-yl)piperidin-4-yl)morpholine hydrochloride] | > 10
